Measured values from patent publication US9533994B2, “Monoclinic crystalline form of asenapine maleate with a specific particle size distribution” (Laboratorios Lesvi S.L., priority 2011, dated 2017).
Counter-ions that a name gives are not always drawn.

How the values were obtained:
[1] = Particle Size Distribution (PSD) by Laser Diffraction Spectrometry (Malvern Mastersizer 2000); format: physicochemical; details: sample in heptane with 0.2% Span-20, by volume
Description: Laser Diffraction Spectrometry (LDS) was used to determine the Particle Size Distribution (PSD). The samples were prepared by mixing 100 mg of asenapine maleate with 5 mL of heptane that contains 0.2% of Span-20. Ultrasonic treatment of the samples was performed for 5 minutes and the PSD was analysed using a particle size analyzer Malvern Mastersizer 2000. Refractive index of asenapine 1.800 and absorption 0.01.

[2] = micronised, per EP 1 710 245 B1 and EP 1 917 267 B1; cited from earlier work
[3] = Outcome of micronisation of asenapine maleate crystals; format: physicochemical; details: micronised crystals, prepared as disclosed in U.S. Pat. No. 4,145,434
Description: As described in Funke et al., Arzneim.-Forsch./Drug Res., 40:536-539 (1990), asenapine maleate (Form H) was the first known polymorphic form. Form H is a monoclinic crystalline form having a melting point in the range of 141° C. to 145° C. EP 1 710 245 B1 and EP 1 917 267 B1 described the discovery of a new form of asenapine maleate (Form L), which is an orthorhombic crystalline form having a melting point in the range of 138° C. to 142° C. EP 1 710 245 131 and EP 1 917 267 B1 mention the importance of asenapine particle size since asenapine commercial sublingual tablets are dissolved in the mouth. Thus, particles having a size distribution characterized by a d95 (95% volume of the particles are smaller than or equal to the indicated size) of about 100 μm or less, more preferably about 50 μm or less, and even more preferably about 30 μm or less, is desirable for sublingual formulations. According to EP 1 710 245 B1 and EP 1 917 267 B1, the outcome of the micronisation process used therein, and which is necessary to reduce the particle size of crystals, appeared to be unpredictable when crystals of monoclinic form of asenapine maleate were subjected to the micronisation process. […]

Structure (SMILES)	PSD d90 [1]	PSD d95 [1]	d95 after micronisation [2]	polymorphic stability after micronisation [3]
CN1C[C@@H]2c3ccccc3Oc3ccc(Cl)cc3[C@H]2C1 (racemic) [Example 1, asenapine maleate]	16 μm	24 μm		
CN1C[C@@H]2c3ccccc3Oc3ccc(Cl)cc3[C@H]2C1 (racemic) [Example 2, asenapine maleate]	15 μm	20 μm		
CN1C[C@@H]2c3ccccc3Oc3ccc(Cl)cc3[C@H]2C1 (racemic) [Example 3, asenapine maleate]	31 μm	37 μm		
CN1C[C@@H]2c3ccccc3Oc3ccc(Cl)cc3[C@H]2C1 (racemic) [Example 4, asenapine maleate]	21 μm	28 μm		
CN1C[C@@H]2c3ccccc3Oc3ccc(Cl)cc3[C@H]2C1 (racemic) [Example 5, asenapine maleate]	29 μm	35 μm		
CN1C[C@@H]2c3ccccc3Oc3ccc(Cl)cc3[C@H]2C1 (racemic) [Example 6, asenapine maleate]	46 μm	56 μm		
CN1C[C@@H]2c3ccccc3Oc3ccc(Cl)cc3[C@H]2C1 (racemic) [asenapine maleate]			≤ 30 μm	
CN1C[C@@H]2c3ccccc3Oc3ccc(Cl)cc3[C@H]2C1 (racemic) [monoclinic form of asenapine maleate, asenapine maleate]				not stable and eventually evolved to the orthorhombic crystalline form

More lines, main results first:

PSD d90 [1]	PSD d95 [1]	Structure (SMILES)	d95 after micronisation [2]	polymorphic stability after micronisation [3]
36 μm	48 μm	CN1C[C@@H]2c3ccccc3Oc3ccc(Cl)cc3[C@H]2C1 (racemic) [Example 7, asenapine maleate]		
54 μm	68 μm	CN1C[C@@H]2c3ccccc3Oc3ccc(Cl)cc3[C@H]2C1 (racemic) [Example 8, asenapine maleate]		
23 μm	28 μm	CN1C[C@@H]2c3ccccc3Oc3ccc(Cl)cc3[C@H]2C1 (racemic) [Example 9, asenapine maleate]		
37 μm	49 μm	CN1C[C@@H]2c3ccccc3Oc3ccc(Cl)cc3[C@H]2C1 (racemic) [Example 10, asenapine maleate]		
17 μm	21 μm	CN1C[C@@H]2c3ccccc3Oc3ccc(Cl)cc3[C@H]2C1 (racemic) [Example 11, asenapine maleate]		
53 μm	120 μm	CN1C[C@@H]2c3ccccc3Oc3ccc(Cl)cc3[C@H]2C1 (racemic) [Example 12, asenapine maleate]		
31 μm	38 μm	CN1C[C@@H]2c3ccccc3Oc3ccc(Cl)cc3[C@H]2C1 (racemic) [Example 13, asenapine maleate]		
